One data set concerns the target HMG-CoA reductase (HMGR) (Homo sapiens (Human), UniProt P04035). As to the kind of experiment: HMG-CoA reductase activity assay (NADPH consumption, Sigma kit). It counts as biochemical. Particulars: for HMGR inhibition (in words): enzyme-based; for IC50: human recombinant protein. On the procedure:
(§1) The HMGR activity was performed using HMG-CoA reductase assay kit from Sigma-Aldrich with the human recombinant protein or 100 μg total cell lysates from A549 cells. […] HMGR activity under defined assay conditions, containing NADPH and HMG-CoA substrate in a final volume of 0.2 mL of 100 mM potassium phosphatate buffer (120 mM KCl, 1 mM EDTA, 5 mM DTT, pH 7.4), were initiated in the presence or absence (control) of test compounds dissolved in dimethylsulfoxide (DMSO). The rates of NADPH consumption were monitored every 20 seconds, for up to 10 minutes, by spectrophotometer at 37° C. and 340 nm. The HMGR activity was calculated as a percentage of activity compared with the control group at 5 min. The IC50 values were calculated from software SigmaPlot.
(§2) HDAC fluorometric activity assay was performed using Fluor-de-Lys as the substrate (BIOMOL, Plymouth Meeting, Pa., USA), and HMGR inhibition was evaluated by the […].

For a further data set, the target named is HDAC1 (Homo sapiens (Human), UniProt Q13547). As to the kind of experiment: HDAC fluorimetric activity assay (Fluor-de-Lys). It counts as biochemical. The note with it: recombinant HDAC1. On the procedure:
(§3) The HDAC activity was performed using the HDAC fluorescent activity assay kit (BIOMOL, Plymouth Meeting, Pa., USA) according to the manufacturer's instructions. Briefly, recombinant proteins of HDAC1 or HDAC6 were incubated with test compounds, and HDAC reaction was initiated by addition of Fluor-de-Lys substrate. Samples were incubated for 10 min at room temperature, followed by adding developer to stop the reaction. Fluorescence was measured by fluorometric reader with excitation at 360 nm and emission at 460 nm. The HDAC activity was expressed as arbitrary fluorescence units (AFU). The HDAC activity was calculated as a percentage of activity compared with the control group. The half maximal inhibitory concentration (IC50) values for the test compounds were calculated from software SigmaPlot.
as §2

For a further data set, the target named is HDAC6 (Homo sapiens (Human), UniProt Q9UBN7). As to the kind of experiment: HDAC fluorimetric activity assay (Fluor-de-Lys). It counts as biochemical. Particulars: recombinant HDAC6. On the procedure:
as §3, §2

The target in the next data set is HDAC2 (Homo sapiens (Human), UniProt Q92769). As to the kind of experiment: HDAC fluorimetric activity assay (Fluor-de-Lys). The class given is biochemical.
Data set [1] concerns MEF normal mouse fibroblast cells. As to the kind of experiment: cells. The note with it: for cytotoxicity on MEF normal cells (in words) / IC50: 72 h; for cytotoxicity on MEF normal cells (in words): MTT, FIG. 4C/4D; for toxicity to normal cells at 100 μM: MEF; for IC50: MTT assay; for SI A549/MEF (selectivity index): ratio of IC50 values, cancer cell and normal cell. It counts as cell-based.
Method: (§4) The cell viability was measured by MTT assay.
(§5) A549 human lung carcinoma cells from American Type Culture Collection (ATCC) were cultured in Dulbecco's Modified Eagle Medium (DMEM). […] All mediums were supplemented with 10% fetal bovine serum (FBS), 100 U/mL penicillin G and 100 mg/mL streptomycin sulfate. Cells were maintained in a humidified incubator containing 5% CO2 in air. Cells were subcultured by trypsinization in laminar flow when grew about 80% in the culture dishes.
(§6) A549 cells were seeded at 3000 cells/well in 96-well plates and maintained for 14-16 hours. Cells were treated with dimethylsulfoxide DMSO or test compounds in varied concentrations for 72 h. Cells were then washed with PBS twice, added a medium containing 3-(4,5-dimethylthiazol-2-yl)-2,5-diphenyltetrazolium bromide (MTT) at a final concentration of 0.5 mg/mL, and incubated for 4 h at 37° C. in a humidified incubator containing 5% CO2 in air. Cells having functional succinate dehydrogenase of mitochondria would convert MTT to formazan. Then, the medium was replaced with 100 μL of DMSO for 30 min at room temperature, and the 96-well plate was read by an ELISA reader at 550 nm to get the absorbance density values. The IC50 values of death cell lines were calculated accordingly.

Data set [2] relates to HS68 normal human fibroblast cells. As to the kind of experiment: cells. The class given is cell-based. Particulars: for cytotoxicity on HS68 normal cells (in words) / IC50: 72 h; for cytotoxicity on HS68 normal cells (in words): MTT, FIG. 4B/4D; for toxicity to normal cells at 100 μM: HS68, 100 μM; for IC50: MTT assay.
Method: as §4, §5, §6
For data set [3], the system named is acetyl-histone H3 and acetyl-tubulin in A549 lung cancer cells. As to the kind of experiment: Western blot of acetyl-histone H3 and acetyl-tubulin. The class given is cell-based, human. The note with it: dose-dependent, FIG. 2. How it is done:
FIG. 2 is a photo showing the effect of test compounds on acetylation of histone H3 and tubulin in A549 lung cancer cell lines. […] A549 cells were treated with the indicated doses of test compounds. Total cell lysates were prepared and subjected to SDS-PAGE using adequate percentage of polyacrylamide gels. Immunoblotting was performed using specific antibodies to evaluate the expression of different proteins.
Following treatment with test compounds, cells were lysed on ice. Total cell lysates were centrifuged at 13,000 rpm for 15 min at 4° C., and then subjected to SDS-PAGE using adequate percentage polyacrylamide gels. Immunoblotting was performed using specific antibodies to evaluate the expression of different proteins.
A549 lung cancer cells were treated with the test compound, and the expression of acetyl-histone H3 and acetyl-tubulin were analyzed by SDS-PAGE using immunoblotting.

The target of data set [4] is HMG-CoA reductase in A549 lung cancer cells (Homo sapiens (Human), UniProt P04035). As to the kind of experiment: Cell-based assay of HMGR inhibition (cell lysates). Particulars: A549 cells treated 24 hours, FIG. 3. How it is done: as §1
Data set [5] has as its system A549 human lung cancer cells. As to the kind of experiment: Cell proliferation (MTT) assay, cancer cells. Particulars: for cell viability of A549 (in words): MTT, FIG. 4A/4D.
Method: as §4, §5, §6
In data set [6] the test system is AOM/DSS-induced colitis-associated colorectal cancer. As to the kind of experiment: AOM/DSS colitis-associated colorectal cancer model, treatment after AOM/DSS. Particulars: for AOM/DSS-induced weight loss / clinical symptoms: oral 100 mg/kg, 5 days a week for 3 weeks after AOM/DSS; for histological examination of colon: treatment after AOM/DSS.
Method: Lova-HA and Atorva-HA were dissolved in corn oil. Lova-HA (100 mg/kg), Atorva-HA (100 mg/kg) or the vehicle (corn oil) was orally administered after AOM/DSS treatment 5 days a week for 3 weeks. All mice were sacrificed after 12 weeks and colon segments were fixed in formalin.
To further investigate whether Lova-HA and Atorva-HA can treat cancer, a C57/BL6 mouse model of colitis-associated CRC was performed after the AOM and 3 cycles of DSS treatment. […] The formation of polyps and colonic tumors were macroscopically observed and counted.
Data set [7] has the same test system. As to the kind of experiment: AOM/DSS colitis-associated colorectal cancer model, chemoprevention.
From the text: All mice were sacrificed at 9 weeks and colon segments were fixed by formalin.
Male C57BL6 mice obtained at 4-5 weeks of age were divided into four groups. […] All mice were sacrificed after 9 weeks and colon segments were fixed in formalin. H&E stain colonic sections were examined for colonic aberrant crypts.
The formation of polyps and colonic tumors were macroscopically observed and counted.
Setting [8] is: Homo sapiens, A549, 72 h, read-out: IC50 (μM) A549, 72 h, MTT assay.

SMILES strings stand for the structures. Values joined by “and” are separate entries in the source; they are usually repeats but may differ in a detail not shown here. Equal values may be shown once. Read-outs that look alike come from different tables or passages of the source.

Sequence of HMG-CoA reductase (HMGR) (P04035 426-888): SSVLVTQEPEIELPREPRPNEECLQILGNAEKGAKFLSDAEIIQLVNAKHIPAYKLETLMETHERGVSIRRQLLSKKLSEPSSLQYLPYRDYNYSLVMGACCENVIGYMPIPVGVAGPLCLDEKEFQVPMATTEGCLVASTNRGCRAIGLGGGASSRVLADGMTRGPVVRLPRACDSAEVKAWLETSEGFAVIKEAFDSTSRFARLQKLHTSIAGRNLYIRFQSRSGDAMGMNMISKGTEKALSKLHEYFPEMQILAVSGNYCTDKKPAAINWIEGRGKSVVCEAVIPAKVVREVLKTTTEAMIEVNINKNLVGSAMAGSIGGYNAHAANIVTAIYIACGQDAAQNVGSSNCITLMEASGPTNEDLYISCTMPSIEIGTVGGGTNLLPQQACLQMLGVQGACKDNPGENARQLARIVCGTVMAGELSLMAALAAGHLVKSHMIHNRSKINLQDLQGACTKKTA
Sequence of HDAC6 (Q9UBN7 whole entry): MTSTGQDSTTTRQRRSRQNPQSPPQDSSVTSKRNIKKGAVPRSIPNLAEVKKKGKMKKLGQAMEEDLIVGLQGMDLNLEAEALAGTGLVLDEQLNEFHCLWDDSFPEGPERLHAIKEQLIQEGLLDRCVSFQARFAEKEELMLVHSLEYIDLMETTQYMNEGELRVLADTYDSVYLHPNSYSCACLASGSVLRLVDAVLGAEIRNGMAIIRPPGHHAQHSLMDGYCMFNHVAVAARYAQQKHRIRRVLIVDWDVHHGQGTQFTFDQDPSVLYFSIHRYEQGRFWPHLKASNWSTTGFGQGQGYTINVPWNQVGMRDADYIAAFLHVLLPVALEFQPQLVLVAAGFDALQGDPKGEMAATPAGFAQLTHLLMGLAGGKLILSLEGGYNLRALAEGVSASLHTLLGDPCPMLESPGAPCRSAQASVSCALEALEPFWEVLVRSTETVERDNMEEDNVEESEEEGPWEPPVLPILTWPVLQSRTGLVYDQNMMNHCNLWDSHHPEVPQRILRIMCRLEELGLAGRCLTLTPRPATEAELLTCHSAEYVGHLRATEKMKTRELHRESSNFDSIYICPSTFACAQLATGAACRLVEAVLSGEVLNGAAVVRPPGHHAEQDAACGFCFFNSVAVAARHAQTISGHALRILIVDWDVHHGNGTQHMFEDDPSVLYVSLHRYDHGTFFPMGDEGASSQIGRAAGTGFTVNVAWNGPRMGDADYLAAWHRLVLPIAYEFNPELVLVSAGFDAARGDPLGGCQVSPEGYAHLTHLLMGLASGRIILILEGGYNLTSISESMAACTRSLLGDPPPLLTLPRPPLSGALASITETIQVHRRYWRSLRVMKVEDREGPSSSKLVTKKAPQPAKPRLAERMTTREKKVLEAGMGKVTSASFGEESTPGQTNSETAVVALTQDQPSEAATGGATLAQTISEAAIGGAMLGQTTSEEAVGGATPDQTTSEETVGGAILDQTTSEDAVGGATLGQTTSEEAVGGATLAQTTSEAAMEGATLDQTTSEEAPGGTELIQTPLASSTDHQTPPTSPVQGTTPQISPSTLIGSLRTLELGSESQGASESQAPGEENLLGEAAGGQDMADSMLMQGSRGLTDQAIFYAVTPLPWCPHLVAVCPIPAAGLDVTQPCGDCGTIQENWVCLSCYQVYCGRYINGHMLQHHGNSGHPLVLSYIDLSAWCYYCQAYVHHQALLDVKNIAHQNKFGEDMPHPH
Sequence of HDAC1 (Q13547 whole entry): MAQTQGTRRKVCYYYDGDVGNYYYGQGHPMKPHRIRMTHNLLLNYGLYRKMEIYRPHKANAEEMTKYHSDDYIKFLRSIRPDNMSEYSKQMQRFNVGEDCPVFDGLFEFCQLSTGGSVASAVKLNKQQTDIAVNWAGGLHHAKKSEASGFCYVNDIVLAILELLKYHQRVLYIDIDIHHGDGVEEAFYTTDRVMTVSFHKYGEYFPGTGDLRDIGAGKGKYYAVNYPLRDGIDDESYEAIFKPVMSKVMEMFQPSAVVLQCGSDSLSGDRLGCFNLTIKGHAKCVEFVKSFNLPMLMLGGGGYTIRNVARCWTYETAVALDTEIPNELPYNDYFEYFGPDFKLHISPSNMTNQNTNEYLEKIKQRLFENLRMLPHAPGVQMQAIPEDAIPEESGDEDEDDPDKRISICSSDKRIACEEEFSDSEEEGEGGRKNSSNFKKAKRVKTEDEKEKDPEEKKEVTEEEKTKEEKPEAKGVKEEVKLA
Sequence of HDAC2 (Q92769 whole entry): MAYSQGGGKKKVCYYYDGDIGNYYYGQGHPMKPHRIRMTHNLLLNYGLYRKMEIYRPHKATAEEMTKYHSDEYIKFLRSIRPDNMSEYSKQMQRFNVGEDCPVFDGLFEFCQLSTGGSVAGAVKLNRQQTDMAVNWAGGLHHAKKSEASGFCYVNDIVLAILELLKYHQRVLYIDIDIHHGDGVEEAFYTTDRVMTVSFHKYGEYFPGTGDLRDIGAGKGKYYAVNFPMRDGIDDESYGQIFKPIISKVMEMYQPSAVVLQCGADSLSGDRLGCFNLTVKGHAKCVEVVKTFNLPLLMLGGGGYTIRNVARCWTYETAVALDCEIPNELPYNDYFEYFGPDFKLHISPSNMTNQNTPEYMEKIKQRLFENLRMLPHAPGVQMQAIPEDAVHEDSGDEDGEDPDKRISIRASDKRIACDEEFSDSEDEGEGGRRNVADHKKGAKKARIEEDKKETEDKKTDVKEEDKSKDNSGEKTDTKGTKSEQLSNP
Sequence of HMG-CoA reductase in A549 lung cancer cells (P04035 whole entry): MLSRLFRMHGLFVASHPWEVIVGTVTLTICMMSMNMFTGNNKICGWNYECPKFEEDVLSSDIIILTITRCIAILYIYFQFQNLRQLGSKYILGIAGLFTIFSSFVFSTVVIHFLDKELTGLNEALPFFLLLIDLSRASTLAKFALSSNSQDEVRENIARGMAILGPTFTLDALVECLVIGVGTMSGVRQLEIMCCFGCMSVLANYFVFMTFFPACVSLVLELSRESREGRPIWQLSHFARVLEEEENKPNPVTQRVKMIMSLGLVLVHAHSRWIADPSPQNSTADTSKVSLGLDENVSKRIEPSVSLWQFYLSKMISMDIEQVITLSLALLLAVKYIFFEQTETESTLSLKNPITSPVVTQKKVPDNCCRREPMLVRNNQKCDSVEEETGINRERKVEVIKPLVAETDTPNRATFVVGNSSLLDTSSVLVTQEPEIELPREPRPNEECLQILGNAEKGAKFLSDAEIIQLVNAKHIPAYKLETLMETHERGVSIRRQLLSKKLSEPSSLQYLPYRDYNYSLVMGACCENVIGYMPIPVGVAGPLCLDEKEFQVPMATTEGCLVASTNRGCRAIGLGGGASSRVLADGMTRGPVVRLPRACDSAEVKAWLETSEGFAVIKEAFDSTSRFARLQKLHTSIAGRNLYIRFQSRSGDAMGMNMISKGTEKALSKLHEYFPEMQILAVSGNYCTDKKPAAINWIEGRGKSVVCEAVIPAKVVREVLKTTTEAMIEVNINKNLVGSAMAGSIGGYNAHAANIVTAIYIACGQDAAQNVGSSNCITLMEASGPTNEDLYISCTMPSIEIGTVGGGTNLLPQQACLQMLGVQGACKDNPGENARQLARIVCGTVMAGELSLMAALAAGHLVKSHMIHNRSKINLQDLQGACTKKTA

Regarding `CC(C)c1c(C(=O)Nc2ccccc2)c(-c2ccccc2)c(-c2ccc(F)cc2)n1CC[C@@H](O)C[C@@H](O)CC(=O)NO` [Atorva-HA, (3R,5R)-7-[2-(4-Fluoro-phenyl)-5-isopropyl-3-phenyl-4-phenylcarbamoylpyrrol-1-yl]-3,5-dihydroxy-N-hydroxyheptanamide], the “HMGR inhibition (in words)” value on HMG-CoA reductase (HMGR) was “potent HMGR inhibition”. The IC50 at HMG-CoA reductase (HMGR) was 9.2 nM; at HDAC1 it was 117 nM; on HDAC6, 83.7 nM; against HDAC2, 467 ± 19 nM; in data set [1] (Mus musculus, Fibroblast), greater than 100 µM; in data set [2] (Homo sapiens, Hs68), greater than 100 µM. Also, the half-inhibitory concentration (IC50) was less than 20 µM in data set [5] (setting [8]) and 17.5 ± 4.7 µM in [5] (read-out: IC50 (μM) A549, 72 h, MTT assay, listed as Atorva-HA (5)). For the same compound, the “cytotoxicity on MEF normal cells (in words)” value in data set [1] was “did not have cytotoxicity”. For the same compound, the “toxicity to normal cells at 100 μM” value in data set [1] and in [2] was “not toxic” each time. For the same compound, in data set [1], the “SI A549/MEF (selectivity index)” value is reported as greater than 5.7. Also, in [2], the “cytotoxicity on HS68 normal cells (in words)” value is on record as “did not have cytotoxicity”. Besides, in data set [3], the “acetylation of histone H3 and tubulin” value is “promoted the acetylations of histone and tubulin”. In addition, in [4], the “HMGR inhibition in cell lysates compared with lovastatin” value was “equal or even better activity than lovastatin”. In addition, the “cell viability of A549 (in words)” value in [5] (72 h) is recorded as “reduced”. Besides, in data set [6] (100 mg/kg oral), the “number and size of tumors” value was “markedly reduced the number and size of tumors”. In addition, the AOM/DSS-induced weight loss result in data set [6] is “could protect the weight loss”. In addition, in [6], the clinical symptoms result is “attenuated”. Also, the “histological examination of colon” value in data set [6] is listed as “surface tumor necrosis”.

In data set [1] (Mus musculus, Fibroblast), `CC(C)c1c(C(=O)Nc2ccccc2)c(-c2ccccc2)c(-c2ccc(F)cc2)n1CC[C@@H](O)C[C@@H](O)CC(=O)O` [Atorvastatin, atorvastatin] gave a concentration for half-maximal inhibition (IC50) of 30.7 ± 3.2 µM. In data set [6], the AOM/DSS-induced weight loss result is “could not protect”, the clinical symptoms result is listed as “not reversed” and the “histological examination of colon” value is recorded as “adenocarcinomas with dysplasia”.

For the compound `CCC(C)C(=O)O[C@H]1C[C@@H](C)C=C2C=C[C@H](C)[C@H](CC[C@@H](O)C[C@@H](O)CC(=O)NO)[C@H]21` (some centres unmarked) [Lova-HA], the half-inhibitory concentration (IC50) on HMG-CoA reductase (HMGR) is 16.8 ± 1.9 nM; on HDAC1 it was 60.1 ± 5.3 nM; on HDAC6, 50.5 ± 4 nM; on HDAC2 it was 468 ± 27.2 nM; in [1] (Mus musculus, Fibroblast) it was greater than 100 µM; in data set [2] (Homo sapiens, Hs68), greater than 100 µM. Besides, the IC50 in [5] (setting [8]) is less than 20 µM; in data set [5] (read-out: IC50 (μM) A549, 72 h, MTT assay, listed as Lova-HA (1)), 18.2 ± 3.4 µM. In addition, the “cytotoxicity on MEF normal cells (in words)” value in data set [1] is listed as “did not have cytotoxicity”. Also, the “toxicity to normal cells at 100 μM” value in data set [1] and in data set [2] was “not toxic” throughout. In addition, the “SI A549/MEF (selectivity index)” value in [1] is listed as greater than 5.6. Besides, in data set [2], the “cytotoxicity on HS68 normal cells (in words)” value is “did not have cytotoxicity”. The colon length in [7] (25 mg/kg oral) came out at 8.6±0.4 cm; in [7] (50 mg/kg oral), 10.1±0.9 cm.

As to `CC[C@H](C)C(=O)O[C@H]1C[C@@H](C)C=C2C=C[C@H](C)[C@H](CC[C@@H]3C[C@@H](O)CC(=O)O3)[C@H]21` [Lovastatin, lovastatin], the IC50 in [1] amounted to 35 ± 5.9 µM. In [2], this compound registered an IC50 of 23.2 ± 3.5 µM. Moreover, in data set [7] (50 mg/kg oral), the colon length is recorded as 8.0±0.9 cm and the “histological examination of colon” value is given as “adenocarcinomas with dysplasia”. In data set [7] (oral, Lova-HA 25 or 50 mg/kg, lovastatin 50 mg/kg), the “bleeding and diarrhea (clinical symptoms)” value is recorded as “not reversed”. In data set [7] (oral, Lova-HA 25 or 50 mg/kg, lovastatin 50 mg/kg, 5 days a week for 8 weeks), the “body weight loss after AOM/DSS” value is reported as “but not lovastatin could protect the weight loss”. In addition, in data set [6], the AOM/DSS-induced weight loss result is listed as “could not protect”, the clinical symptoms result was “not reversed” and the “histological examination of colon” value was “adenocarcinomas with dysplasia”.

With `CC(C)c1nc(N(C)S(C)(=O)=O)nc(-c2ccc(F)cc2)c1/C=C/[C@@H](O)C[C@@H](O)CC(=O)NO` [Rosuva-HA, (3R,5S,6E)-7-[4-(4-fluorophenyl)-2-(N-methylmethanesulfonamido)-6-isopropylpyrimidin-5-yl]-3,5-dihydroxy-N-hydroxy-6-heptenamide], the “HMGR inhibition (in words)” value on HMG-CoA reductase (HMGR) is given as “potent HMGR inhibition”. For the same compound, the IC50 was 43.7 ± 1.6 nM on HMG-CoA reductase (HMGR); 125 ± 7.1 nM on HDAC1; 133 ± 5.5 nM at HDAC6; 400 to 630 nM and 600 nM on HDAC2. Besides, the “acetylation of histone H3 and tubulin” value in data set [3] was “promoted the acetylations of histone and tubulin”.

Consider `O=C(CCCCCCC(=O)Nc1ccccc1)NO` [SAHA, suberoylanalide hydroxamic acid, reference compound], for which, at HMG-CoA reductase (HMGR), the “HMGR inhibition (in words)” value is given as “no significant inhibition” and the IC50 is greater than 10000 nM. Further, in [1], the “cytotoxicity on MEF normal cells (in words)” value is on record as “toxic to normal cells”. Besides, the “cytotoxicity on HS68 normal cells (in words)” value in data set [2] was “toxic to normal cells”. Moreover, the “cell viability of A549 (in words)” value in data set [5] (72 h) is “killed cancer cells”. Besides, in [6], the AOM/DSS-induced weight loss result is given as “could not protect”, the clinical symptoms entry is “attenuated” and the “histological examination of colon” value is on record as “surface tumor necrosis”.

In the case of `CCC(C)(C)C(=O)O[C@H]1C[C@@H](C)C=C2C=C[C@H](C)[C@H](CC[C@@H](O)C[C@@H](O)CC(=O)NO)[C@H]21` [Simva-HA, (3R,5R)-7-{(1S,2S,6R,8S,8aR)-Hexahydro-2,6-dimethyl-8-[2-dimethylbutyryloxy]naphthalenyl}-3,5-dihydroxy-N-hydroxyheptanamide], the IC50 was 11.4 nM on HMG-CoA reductase (HMGR); 60.7 ± 3.2 nM on HDAC1; 67.1 nM at HDAC6; 400 to 630 nM against HDAC2; greater than 100 µM in data set [1] (Mus musculus, Fibroblast); greater than 100 µM in data set [2] (Homo sapiens, Hs68). The IC50 in data set [5] (setting [8]) was less than 20 µM; in data set [5] (read-out: IC50 (μM) A549, 72 h, MTT assay, listed as Simva-HA (2)), 20 ± 3.1 µM. The “cytotoxicity on MEF normal cells (in words)” value in data set [1] is recorded as “did not have cytotoxicity”. Also, the “toxicity to normal cells at 100 μM” value in data set [1] and in data set [2] was “not toxic” each time. The “SI A549/MEF (selectivity index)” value in [1] is recorded as greater than 5.0. Also, the “cytotoxicity on HS68 normal cells (in words)” value in data set [2] is listed as “did not have cytotoxicity”.

`CCC(C)(C)C(=O)O[C@H]1C[C@@H](C)C=C2C=C[C@H](C)[C@H](CC[C@@H]3C[C@@H](O)CC(=O)O3)[C@H]21` [simvastatin, reference compound]: the IC50 in [1] (Mus musculus, Fibroblast) came out at 36.7 ± 4.4 µM; in data set [2] (Homo sapiens, Hs68), 26.4 ± 2.1 µM; in data set [5] (Homo sapiens, A549, 72 h, read-out: IC50 (μM) A549), 16.3 ± 0.1 µM. Besides, the “SI A549/MEF (selectivity index)” value in data set [1] turned out to be 2.3.
